Data: patent US11649222B2, “Compounds” (UNIVERSITETET I OSLO, priority 2016, dated 2023)
Values joined by “and” are separate entries in the source; they are usually repeats but may differ in a detail not shown here. Equal entries are not always repeated.

Assays:
[1] = system: Klebsiella pneumoniae strain 50752501 harbouring NDM-1; experiment: In vivo peritonitis infection study in neutropenic mice; parameters: Score at sampling: scale not given here
Procedure: The purpose of this study was to investigate the synergy between a typical example of the present invention and a state of art carbapenem in a clinically relevant multiresistant Gram-negative bacterial strain harboring a metallo-β-lactamase in the treatment of live mice infected with the bacterial strain.
The mice were rendered neutropenic by injecting 0.5 ml cyclophosphamide solution intraperitoneally 4 days (approximately 200 mg/kg) and 1 day (approximately 100 mg/kg) prior to inoculation.
Fresh overnight colonies from a 5% Horse Blood Agar plate were suspended and diluted in sterile saline to approximately and 10^7 CFU/ml. Mice were inoculated intraperitoneally with 0.5 ml of the suspension. Approximately ½ hr prior to inoculation, mice were treated orally with 45 μl neurophen (20 mg ibuprofen/ml corresponding to approximately 30 mg/kg) as a pain relief.
Mice were treated subcutaneously in the neck region with.
Colony counts were determined from blood and peritoneal fluid at 1 and 5 hrs post inoculation. […] The mice were sacrificed immediately after blood sampling and a total of 2 ml sterile saline was injected i.p. and the abdomen gently massaged before it was opened and fluid sampled with a pipette. Each sample was then 10 fold serial diluted in saline and 20-μl spots, ranging from undiluted to a 10^6 dilution, were applied on agar plates in duplicates. […] All agar plates were incubated 18-22 hrs at 35° C. in ambient air.

[2] = system: K. pneumonia 50627996 (NDM-1); experiment: Checkerboard MIC, Example 26 and meropenem; type: cell-based
Procedure: (§1) A checkerboard MIC assay was using the broth dilution method according to CLSI guidelines. […] Dilutions to 4 mg/ml was performed by adding+4.75 ml sterile saline to 0.25 ml of the stock solution, and dilutions to 512 μg/ml was performed by adding 10.9 ml MH-broth to the 4 mg/ml solution. Inoculums of bacterial strains as described in Table 4 were prepared by suspending fresh overnight colonies from 5% horse blood agar were to a turbidity of 0.5 McFarland and further diluted to 1×10^6 CFU/ml in MH-broth. Aliquots of 50 μl of MH-broth were added to each well of polystyrene microtiter plates. […] The plates were incubated at 35° C., 16-20 hours.

E. coli AMA817 (NDM-1) = experiment: Checkerboard MIC, Example 26 and meropenem; type: cell-based
Procedure: as §1

[3] = system: K. pneumonia 50690310 (NDM-1); experiment: Checkerboard MIC, Example 26 and meropenem; type: cell-based
Procedure: as §1

E. coli AMA1563 (NDM-5) = experiment: Checkerboard MIC, Example 26 and meropenem; type: cell-based
Procedure: as §1

E. coli AMA323 (VIM-4) = experiment: Checkerboard MIC, Example 26 and meropenem; type: cell-based
Procedure: as §1

E. coli 50676002 (NDM-1) = experiment: Checkerboard MIC, Example 26 and meropenem; type: cell-based
Procedure: as §1

[4] = system: K. pneumonia 50825040 (NDM-1); experiment: Checkerboard MIC, Example 26 and meropenem; type: cell-based
Procedure: as §1

[5] = system: K. pneumonia K45-67 (VIM-1); experiment: Checkerboard MIC, Example 26 and meropenem; type: cell-based
Procedure: as §1

[6] = system: K. pneumonia 50752501 (NDM-1); experiment: Checkerboard MIC, Example 26 and meropenem; type: cell-based
Procedure: as §1

[7] = system: K. pneumonia 50877064 (NDM-1); experiment: Checkerboard MIC, Example 26 and meropenem; type: cell-based
Procedure: as §1

[8] = system: K. pneumonia K66-45 (NDM-1); experiment: Checkerboard MIC, Example 26 and meropenem; type: cell-based
Procedure: as §1

E. coli 50739822 (NDM-1) = experiment: Checkerboard MIC, Example 26 and meropenem; type: cell-based
Procedure: as §1

E. coli 50921466 (VIM-1) = experiment: Checkerboard MIC, Example 26 and meropenem; type: cell-based
Procedure: as §1

[9] = system: K. pneumonia 50923744 (VIM); experiment: Checkerboard MIC, Example 26 and meropenem; type: cell-based
Procedure: as §1

[10] = system: K. pneumonia K46-62 (VIM-1); experiment: Checkerboard MIC, Example 26 and meropenem; type: cell-based
Procedure: as §1

[11] = vehicle + meropenem 33 mg/kg, sampling T = 5, individual mice
[12] = Klebsiella pneumoniae, read-out: MIC alone, Meropenem
[13] = Escherichia coli, read-out: MIC alone, Meropenem

C[C@@H](O)[C@H]1C(=O)N2C(C(=O)O)=C(S[C@@H]3CN[C@H](C(=O)N(C)C)C3)[C@H](C)[C@H]12 [meropenem, reference compound]
lower CFU levels compared to vehicle treatment, blood ([1]; meropenem alone): 2.5 log10 | lower CFU levels compared to vehicle treatment, peritoneal fluid ([1]; meropenem alone): 2.2 log10 | Pf log CFU/ml mean ([1]; peritoneal fluid, vehicle + meropenem 33 mg/kg, sampling T = 5): 5.22 log CFU/ml | Pf log CFU/ml ([1]; peritoneal fluid, vehicle + meropenem 33 mg/kg, sampling T = 5, individual mice): 5.72 log CFU/ml and 4.60 log CFU/ml and 5.30 log CFU/ml and 5.24 log CFU/ml | Blood log CFU/ml mean ([1]; vehicle + meropenem 33 mg/kg, sampling T = 5): 2.98 log CFU/ml | Blood log CFU/ml [1, 11]: 3.51 log CFU/ml (2×) and 2.80 log CFU/ml and 2.10 log CFU/ml | Score at sampling [1, 11]: 2 | MIC [2, 12]: 64 µg/mL | MIC in combination, Meropenem ([2]; with Example 26): 0.125 µg/mL | MIC (E. coli AMA817 (NDM-1); [13]): 32 µg/mL | MIC in combination, Meropenem (E. coli AMA817 (NDM-1); with Example 26): ≤0.0625 µg/mL | MIC [3, 12]: 16 µg/mL | MIC in combination, Meropenem ([3]; with Example 26): ≤0.0625 µg/mL | MIC (E. coli AMA1563 (NDM-5); [13]): 64 µg/mL | MIC in combination, Meropenem (E. coli AMA1563 (NDM-5); with Example 26): ≤0.0625 µg/mL | MIC (E. coli AMA323 (VIM-4); [13]): 8 µg/mL | MIC in combination, Meropenem (E. coli AMA323 (VIM-4); with Example 26): ≤0.0625 µg/mL | MIC (E. coli 50676002 (NDM-1); [13]): 32 µg/mL | MIC in combination, Meropenem (E. coli 50676002 (NDM-1); with Example 26): ≤0.0625 µg/mL | MIC [4, 12]: 64 µg/mL | MIC in combination, Meropenem ([4]; with Example 26): ≤0.0625 µg/mL | MIC [5, 12]: 32 µg/mL | MIC in combination, Meropenem ([5]; with Example 26): ≤0.0625 µg/mL | MIC [6, 12]: 64 µg/mL | MIC in combination, Meropenem ([6]; with Example 26): ≤0.0625 µg/mL | MIC [7, 12]: 64 µg/mL | MIC in combination, Meropenem ([7]; with Example 26): ≤0.0625 µg/mL | MIC [8, 12]: 64 µg/mL | MIC in combination, Meropenem ([8]; with Example 26): ≤0.0625 µg/mL | MIC (E. coli 50739822 (NDM-1); [13]): 32 µg/mL | MIC in combination, Meropenem (E. coli 50739822 (NDM-1); with Example 26): ≤0.0625 µg/mL | MIC (E. coli 50921466 (VIM-1); [13]): 2 µg/mL | MIC in combination, Meropenem (E. coli 50921466 (VIM-1); with Example 26): ≤0.0625 µg/mL | MIC [9, 12]: 2 µg/mL | MIC in combination, Meropenem ([9]; with Example 26): ≤0.0625 µg/mL | MIC [10, 12]: 32 µg/mL | MIC in combination, Meropenem ([10]; with Example 26): ≤0.0625 µg/mL
